Results reported in ChEMBL document CHEMBL3108733, “Design, synthesis, and evaluation of hydroxamic acid derivatives as promising agents for the management of Chagas disease” (J Med Chem, 2014).
Values belong to the molecule of their own block, whether it stands above or below them. The source made the active and inactive calls. No cut-off for these calls is given here.

Legend:
[1] = Inhibition of Trypanosoma cruzi recombinant carbonic anhydrase-mediated CO2 hydration by stopped-flow assay
Trypanosoma cruzi [2] = test: Antitrypanosomal activity against Trypanosoma cruzi Y trypomastigotes at 16 uM after 48 hrs by Neubauer chamber counting analysis relative to control; type: functional
Trypanosoma cruzi [3] = test: Antitrypanosomal activity against Trypanosoma cruzi Y trypomastigotes after 48 hrs by Neubauer chamber counting analysis
Trypanosoma cruzi [4] = test: Antitrypanosomal activity against Trypanosoma cruzi Dm28c epimastigotes after 5 days by resazurin dye-based assay; details: 120 h
Trypanosoma cruzi [5] = test: Antitrypanosomal activity against Trypanosoma cruzi Y infected in human THP1 cells assessed as reduction of parasite burden at 32 uM after 48 hrs by Giemsa staining-based Neubauer chamber counting analysis relative to control; type: functional, THP-1; set-up: scale not given: the % may be the effect or the level left
Trypanosoma cruzi [6] = test: Trypanocidal activity against Trypanosoma cruzi Y infected in BALB/c mouse assessed as reduction in parasitemia at 25 mg/kg treated from day 2 to day 9 post-infection measured on day 9 post-infection; type: functional, organism-based; set-up: dose 25 mg/kg
Trypanosoma cruzi [7] = test: Antitrypanosomal activity against Trypanosoma cruzi Y epimastigotes after 5 days by resazurin dye-based assay; details: 120 h
Trypanosoma cruzi [8] = test: Antitrypanosomal activity against Trypanosoma cruzi Y infected in BALB/c mouse peritoneal macrophages assessed as reduction of parasite burden after 48 hrs by Giemsa staining-based Neubauer chamber counting analysis
Trypanosoma cruzi [9] = details: Y, 32 to 64 uM
Description: Inhibition of metallopeptidase in Trypanosoma cruzi Y epimastigotes at 32 to 64 uM after 12 hrs by gelatin zymography assay

Trypanosoma cruzi [10] = test: Trypanocidal activity against Trypanosoma cruzi Y infected in BALB/c mouse assessed as reduction in parasitemia at 25 mg/kg treated from day 2 to day 9 post-infection measured on day 6 post-infection; type: functional, organism-based; set-up: dose 25 mg/kg
Trypanosoma cruzi [11] = test: Antitrypanosomal activity against Trypanosoma cruzi Y infected in BALB/c mouse peritoneal macrophages assessed as reduction of parasite burden at 32 uM after 48 hrs by Giemsa staining-based Neubauer chamber counting analysis relative to control; type: functional; set-up: scale not given: the % may be the effect or the level left
Trypanosoma cruzi [12] = test: Antitrypanosomal activity against Trypanosoma cruzi Y infected in BALB/c mouse peritoneal macrophages assessed as decrease in trypomastigotes release at 16 uM after 120 hrs by Giemsa staining-based Neubauer chamber counting analysis; type: functional, organism-based
Trypanosoma cruzi [13] = test: Trypanocidal activity against Trypanosoma cruzi Y infected in BALB/c mouse assessed as mouse survival at 25 mg/kg treated from day 2 to day 9 post-infection; type: functional
Trypanosoma cruzi [14] = test: Antitrypanosomal activity against Trypanosoma cruzi Y infected in human THP1 cells assessed as reduction of parasite burden after 48 hrs by Giemsa staining-based Neubauer chamber counting analysis; details: THP-1, 48 h
Trypanosoma cruzi [15] = test: Antitrypanosomal activity against Trypanosoma cruzi Y infected in human THP1 cells assessed as decrease in intracellular amastigotes at 2 uM after 48 hrs by Giemsa staining-based Neubauer chamber counting analysis; type: functional, organism-based; details: THP-1
Trypanosoma cruzi [16] = details: Y, 32 to 64 uM; remark: listed apart in the source
Description: Inhibition of cysteine peptidase in Trypanosoma cruzi Y epimastigotes at 32 to 64 uM after 12 hrs by gelatin zymography assay

Trypanosoma cruzi [17] = test: Antitrypanosomal activity against Trypanosoma cruzi Y epimastigotes assessed as growth inhibition at 32 uM after 5 days by Neubauer chamber counting analysis relative to control; type: functional
[18] = Cytotoxicity against BALB/c mouse peritoneal macrophages after 48 hrs by MTT/LDH assay; type: cell-based, Peritoneal macrophage cell
Trypanosoma cruzi [19] = test: Antitrypanosomal activity against Trypanosoma cruzi Dm28c trypomastigotes after 48 hrs by Neubauer chamber counting analysis
Trypanosoma cruzi [20] = test: Antitrypanosomal activity against Trypanosoma cruzi Dm28c trypomastigotes at 16 uM after 48 hrs by Neubauer chamber counting analysis relative to control; type: functional
[21] = Cytotoxicity against BALB/c mouse peritoneal macrophages after 24 hrs by MTT/LDH assay; type: cell-based, Peritoneal macrophage cell
Trypanosoma cruzi [22] = details: Y, 16 uM
Description: Inhibition of MMP9 in Trypanosoma cruzi Y epimastigotes assessed as effect on protein level at 16 uM after 5 days by Western blotting analysis

Carbonic anhydrase 1 = Carbonic anhydrase 1 (Homo sapiens, UniProt P00915); test: Inhibition of human recombinant carbonic anhydrase-1-mediated CO2 hydration by stopped-flow assay
Chain of Carbonic anhydrase 1 (P00915 whole entry): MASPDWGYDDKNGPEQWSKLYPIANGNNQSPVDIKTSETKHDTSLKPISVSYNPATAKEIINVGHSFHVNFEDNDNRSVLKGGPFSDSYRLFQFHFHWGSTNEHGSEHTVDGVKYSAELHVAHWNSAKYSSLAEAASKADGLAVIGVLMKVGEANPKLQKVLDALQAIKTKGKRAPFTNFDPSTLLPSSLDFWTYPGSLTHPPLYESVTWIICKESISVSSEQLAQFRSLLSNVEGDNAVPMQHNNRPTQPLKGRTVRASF

Carbonic anhydrase 2 = Carbonic anhydrase 2 (Homo sapiens, UniProt P00918); test: Inhibition of human recombinant carbonic anhydrase-2-mediated CO2 hydration by stopped-flow assay
Trypanosoma cruzi [23] = test: Inhibition of MMP9 in Trypanosoma cruzi Y epimastigotes assessed as effect on protein level at 32 uM after 5 days by Western blotting analysis
Trypanosoma cruzi [24] = test: Trypanocidal activity against Trypanosoma cruzi Y infected in BALB/c mouse assessed as mouse survival at 100 mg/kg treated from day 2 to day 9 post-infection; type: functional

Ki [1]: 141 nM
Structure (SMILES): CC1(C(=O)NO)CC(c2ccccc2F)=NO1 (centres undefined)

Structure (SMILES): O=C(NO)C1CC(c2ccc(OCc3ccccc3)cc2)=NO1 (centres undefined)
Activity (Trypanosoma cruzi [2]): 100%
IC50 (Trypanosoma cruzi [3]): 3500 nM
IC50 (Trypanosoma cruzi [4]): 10400 nM
Ki [1]: 39.8 nM
Activity (Trypanosoma cruzi [5]): 100%
Activity (Trypanosoma cruzi [6]): Active
IC50 (Trypanosoma cruzi [7]): 7000 nM
IC50 (Trypanosoma cruzi [8]): 9100 nM
inhibition (Trypanosoma cruzi [9]): Active
Activity (Trypanosoma cruzi [10]): inactive
Activity (Trypanosoma cruzi [11]): 5%
Activity (Trypanosoma cruzi [12]): Active
Survival (Trypanosoma cruzi [13]): 25 days
IC50 (Trypanosoma cruzi [14]): < 1000 nM
Activity (Trypanosoma cruzi [15]): Active
inhibition (Trypanosoma cruzi [16]): Active
inhibition of growth at 32 µM (Trypanosoma cruzi [17]; 120 h, read-out: GI): 100%
CC50 at 48 h [18]: 64000 nM
IC50 (Trypanosoma cruzi [19]): 5900 nM
Activity (Trypanosoma cruzi [20]): 100%
CC50 at 24 h [21]: 92000 nM
inhibition (Trypanosoma cruzi [22]): Active

Ki [1]: 615 nM
Structure (SMILES): CC1(C(=O)NO)CC(c2cccc(Br)c2)=NO1 (centres undefined)
growth inhibition (GI) (Trypanosoma cruzi [17]): inactive

Ki [1]: 365 nM
Structure (SMILES): CC1(C(=O)NO)CC(c2cccc(Cl)c2)=NO1 (centres undefined)
growth inhibition (GI) (Trypanosoma cruzi [17]): inactive

Ki [1]: > 100000 nM
Ki (Carbonic anhydrase 1): > 100000 nM
Ki (Carbonic anhydrase 2): > 100000 nM
Structure (SMILES): CCOc1ccc(C2=NOC(C(=O)NN)C2)cc1 (centres undefined)

Ki [1]: 94.1 nM
Structure (SMILES): CCOc1ccccc1C1=NOC(C(=O)NO)C1 (centres undefined)
growth inhibition (GI) (Trypanosoma cruzi [17]): Active

Ki [1]: 189 nM
Structure (SMILES): O=C(NO)C1CC(c2ccc(Cl)cc2)=NO1 (centres undefined)
growth inhibition (GI) (Trypanosoma cruzi [17]): Active

Ki [1]: 428 nM
Structure (SMILES): O=C(NO)C1CC(c2ccccc2)=NO1 (centres undefined)
growth inhibition (GI) (Trypanosoma cruzi [17]): inactive

inhibition (Trypanosoma cruzi [23]): inactive
Structure (SMILES): C[C@H]1c2cccc(O)c2C(=O)C2=C(O)[C@]3(O)C(=O)C(C(N)=O)=C(O)[C@@H](N(C)C)[C@@H]3[C@@H](O)[C@@H]21

Ki [1]: > 100000 nM
Ki (Carbonic anhydrase 1): > 100000 nM
Ki (Carbonic anhydrase 2): > 100000 nM
Structure (SMILES): CCOc1ccccc1C1=NOC(C(=O)NN)C1 (centres undefined)

Ki [1]: 267 nM
Structure (SMILES): O=C(NO)C1CC(c2cccc(Cl)c2)=NO1 (centres undefined)
growth inhibition (GI) (Trypanosoma cruzi [17]): Active

Ki [1]: 182 nM
Structure (SMILES): CC1(C(=O)NO)CC(c2cccc(F)c2)=NO1 (centres undefined)

Ki [1]: 263 nM
Structure (SMILES): O=C(NO)C1CC(c2ccccc2Cl)=NO1 (centres undefined)
growth inhibition (GI) (Trypanosoma cruzi [17]): Active

Ki [1]: 71.3 nM
Structure (SMILES): CCOc1ccc(C2=NOC(C(=O)NO)C2)cc1 (centres undefined)
growth inhibition (GI) (Trypanosoma cruzi [17]): Active

Structure (SMILES): O=C(Cn1ccnc1[N+](=O)[O-])NCc1ccccc1 [BENZNIDAZOLE]
Survival (Trypanosoma cruzi [24]): 25 days
growth inhibition (GI) (Trypanosoma cruzi [17]): Active
